The test system of series [1] is NS20Y neuroblastoma cells. The note with it: for Bioactive?: neurite outgrowth, 0-8 ng/ml peptide, 24 hours. On the procedure: NS20Y neuroblastoma cells were grown in DMEM containing 10% fetal calf serum (FCS). Cells were removed with trypsin and plated in 30 mm petri dishes onto glass coverslips. […] Cells were cultured for an additional 24 hours, washed with PBS and fixed with Bouin's solution (saturated aqueous picric acid/formalin/acetic acid 15:5:1) for 30 minutes. Fixative was removed with PBS and neurite outgrowth was scored under a phase contrast microscope. […] At least 200 cells were scored in different portions of each dish to determine the percentage of neurite bearing cells and assays were performed in duplicate.
The ED50 value is defined as the half maximal concentration for maximal neurite outgrowth and neural protection in ng/ml.

For another series, the system named is neuroblastoma cells. The note with it: neuroblastoma cells in vitro; cited from earlier work.
The test system of series [2] is neuroblastoma cells and mouse cerebellar explants. To be noted: cited from earlier work.
The subject of series [3] is choline acetyltransferase. The note with it: neuroblastoma cells in vitro; cited from earlier work.
Series [4] can be described thus: Localization and integrity of 125I-peptide D8 in organs after intramuscular or oral administration. Format: in vivo, Sprague-Dawley rat. To be noted: for D8 in tissue: Brain / D8 in tissue: Eyes / D8 in tissue: Heart / D8 in tissue: Kidney 1 / D8 in tissue: Kidney 2 / D8 in tissue: Liver / D8 in tissue: Lung / D8 in tissue: Muscle / D8 in tissue: Sciatic Nerve / D8 in tissue: Spinal Cord / D8 in tissue: Spleen: 200 μg/kg, rat; for crossing of the blood brain barrier: iodinated D8, rat, found in brain after oral administration. Here is the method: Peptide D8 (SEQ ID NO: 4) was iodinated with ^125I according to the manufacturer's instructions (Pierce Chemical Co., Rockford, Ill.), and 200 μg/kg in PBS was injected intramuscularly into, or administered orally to, an adult male Sprague-Dawley rat. […] Results below give ng/g of […] in each tissue after conversion of cpm to nanograms (Table 2). All organs studied contained 90% or greater intact D8. The trophic concentration was estimated to be about 0.2 ng/g over 20 min.

The next series concerns EAE rats. Description: Reversal of demyelination in experimental allergic encephalomyelitis (EAE) rat model. Format: in vivo, Lewis rats. The note with it: oral D8 100 μg/kg daily. On the procedure:
Experimental allergic encephalomyelitis (EAE) is a rat model of human multiple sclerosis (MS). In rats, EAE is induced by injecting foreign protein (guinea pig spinal cord) which results in inflammation and demyelination in white matter 11 days later.
EAE was induced in Lewis rats by injection of an emulsion of guinea pig spinal cord and complete Freund's adjuvant (CFA). At day 12-14, when weakness was evident, treatment with D8 (SEQ ID NO: 4) was begun (100 μg/kg orally in PBS via a stomach tube) and continued for 16 days every day. Six rats were injected with vehicle only. The number and size of demyelinating lesions (plaques) in the spinal cord per mm^2 was scored at […].
After 16 days of oral treatment with D8 (100 μg/kg/day) beginning after the onset of EAE at 14 days, spinal cord lesions were examined and the number of remyelinated axons per lesion were counted.

For the next series, the system named is myelination. The note with it: cited from earlier work.
Setting [5] is: half maximal concentration for maximal neurite outgrowth and neural protection, NS20Y cells.

Values after ≈ are worked out from the molar mass of the structure shown. Like-named read-outs stand apart in the source and are kept apart here. Non-standard residues stand in square brackets, D forms with d. Residues, ends and D or L forms follow the SMILES beside them. No end group written: not given here.

YLLEETANNDLLAT [Peptide D3]: the ED50 in series [1] (setting [5]) amounted to 0.4 ng/mL. The “Bioactive?” value in series [1] (NS20Y cells) is listed as “YES”.

In the case of “CEFLVKEVTKLIDNNKTEKEIL [Peptide 22-mer, 22-mer peptide consisting of amino acids 8-29 of human saposin C]”, the cell death entry in the series on neuroblastoma cells is recorded as “prevents cell death”. Moreover, the neurite outgrowth entry in series [2] (in both neuroblastoma cells and mouse cerebellar explants) is on record as “stimulates neurite outgrowth”. Further, the choline acetyltransferase activity result in series [3] is given as “stimulates choline acetyltransferase activity”.

Turning to LLEETANNDL [Peptide D5], the ED50 in series [1] (setting [5]) turned out to be 0.2 ng/mL. Also, the “Bioactive?” value in series [1] (NS20Y cells) is listed as “YES”.

For YSLEKETKNNDLL [Peptide D6], in series [1] (setting [5]), the ED50 is 0.27 ng/mL. In series [1] (NS20Y cells), the “Bioactive?” value is listed as “YES”.

The molecule YLLEETANNDL [Peptide D4] displayed an ED50 in series [1] (setting [5]) of 0.4 ng/mL. For the same molecule, in series [1] (NS20Y cells), the “Bioactive?” value is “YES”.

Consider YKEVTKLIDNNKTEKEIL [Peptide 18-mer], for which the neurite outgrowth result in series [2] is “promotes neurite outgrowth”.

Regarding `CC(C)C[C@@H](N)C(=O)N[C@H](CC(C)C)C(=O)N[C@H](CCC(=O)O)C(=O)N[C@H](CCC(=O)O)C(=O)N[C@H](CC(N)=O)C(=O)N[C@H](CC(N)=O)C(=O)N[C@H](CC(=O)O)C(=O)N[C@H](CC(C)C)C(=O)O` [Peptide D8, D-leu-D-leu-D-glu-D-glu-D-asn-D-asn-D-asp-D-leu] (HELM PEPTIDE1{[dL].[dL].[dE].[dE].[dN].[dN].[dD].[dL]}$$$$V2.0; N-terminus and C-terminus assumed), in series [4] (intramuscular, 20 min), the “D8 in tissue: Brain” value is given as 1.00 ng/g, the “D8 in tissue: Eyes” value was determined as 13.9 ng/g, the “D8 in tissue: Heart” value was 9.8 ng/g and the “D8 in tissue: Kidney 1” value is 395 ng/g. Further, in series [4] (intramuscular, 20 min), the “D8 in tissue: Kidney 2” value amounted to 405 ng/g, the “D8 in tissue: Liver” value was 8.0 ng/g, the “D8 in tissue: Lung” value was found to be 43.0 ng/g and the “D8 in tissue: Muscle” value amounted to 19.7 ng/g. Further, in series [4] (intramuscular, 20 min), the “D8 in tissue: Sciatic Nerve” value was determined as 36.7 ng/g, the “D8 in tissue: Spinal Cord” value came out at 2.90 ng/g and the “D8 in tissue: Spleen” value was determined as 41.7 ng/g. The “crossing of the blood brain barrier” value in series [4] is listed as “can cross the blood brain barrier”. Further, the “crossing of the blood brain barrier” value in series [4] (listed as SEQ ID NO: 4) is reported as “crosses the blood brain barrier”. In series [4] (oral, 25 min), the “D8 in tissue: Brain” value worked out at 5.62 ng/g, the “D8 in tissue: Eyes” value is on record as 4.66 ng/g, the “D8 in tissue: Heart” value is listed as 3.26 ng/g and the “D8 in tissue: Kidney 1” value is given as 201 ng/g. In series [4] (oral, 25 min), the “D8 in tissue: Kidney 2” value is 217 ng/g, the “D8 in tissue: Liver” value turned out to be 5.6 ng/g, the “D8 in tissue: Lung” value is recorded as 526 ng/g and the “D8 in tissue: Muscle” value is 3.2 ng/g. In series [4] (oral, 25 min), the “D8 in tissue: Sciatic Nerve” value was found to be 3.3 ng/g, the “D8 in tissue: Spinal Cord” value worked out at 2.15 ng/g and the “D8 in tissue: Spleen” value is listed as 4.9 ng/g. This molecule gave an ED50 in series [1] of 0.01 ng/mL (≈ 0.0104 nM). In addition, in the series with EAE rats, the “weight loss versus control animals” value is reported as “no difference in weight loss”.

In series [1] (setting [5]), YLIEETANNDLAT [Peptide D2] registered an ED50 of 0.8 ng/mL. For the same molecule, the “Bioactive?” value in series [1] (NS20Y cells) is on record as “YES”.

Molecule “TXLIDNNATEEILY, X=D-alanine (T[dA]LIDNNATEEILY) [Peptide D1]” registered an ED50 in series [1] (setting [5]) of 1.00 ng/mL. For the same molecule, the “Bioactive?” value in series [1] (NS20Y cells) was “YES”.

B1: saposin C: glycoprotein generated by proteolytic processing of prosaposin (protein, UniProt P07602 311-390, looked up)
Saposin-C: SDVYCEVCEFLVKEVTKLIDNNKTEKEILDAFDKMCSKLPKSLSEECQEVVDTYGSSILSILLEEVSPELVCSMLHLCSG
modifications: Saposin-C
notes: glycoprotein generated by proteolytic processing of prosaposin
B1: the myelination entry with myelination is “promote increased myelination”. Also, in series [2], the neurite outgrowth result is listed as “stimulate neurite outgrowth”.

(Values after patent US20020128193A1, “Retro-inverso prosaposin-derived peptides and use thereof” (priority 1999, published 2002).)
